In brackets after ≈: the same amount, converted by molar mass. Entries after “also recorded” stand apart in the source; their conditions may differ. Like-named read-outs stand apart in the source and are kept apart here.
Tests used:
[1] = tested on: first-instar Heliothis virescens larvae; experiment: Mortality and growth inhibition in first-instar Heliothis virescens larvae fed in an artificial diet; type: in vivo; details: for EC50 (concentration causing 50% growth inhibition): first-instar larvae, artificial diet, in parentheses 95% confidence limits; for LC50 (concentration causing 50% mortality): heliothis virescens, in vivo; for LC50 (concentration causing 50% mortality) / LC50: po; for LC50: Heliothis virescens, read-out: LC50 (concentration causing 50% mortality)
Source text: Mortality and growth inhibition in first-instar Heliothis
virescens larvae fed azadirachtin and eight derivatives in an
^b LC50 values are the concentrations (ppm) causing 50%
^c EC50 values are the concentrations (PPM) causing 50% growth
^d Numbers in parentheses are the 95% confidence limits determined
using the methods of Litchfield and Wilcoxon, J. Pharmacol. Exp. Ther.

[2] = tested on: fifth-instar Heliothis virescens larvae; experiment: Relative activity of UV-irradiated compounds in inhibiting pupal development (pupation); type: in vivo; details: for Relative activity, inhibiting pupal development: relative to non-irradiated
Method: (§1) Azadirachtin and its derivatives listed above (1.0 mg/ml absolute ethanol) were placed individually in capped quartz NMR tubes (5×180 mm) and were irradiated with two UV germicidal lights (GE, G30T8, 200-280 nm, 30 W) 1.8 m from the source at room temperature for up to 400 h. The controls were identical samples protected from exposure to UV radiation by wrapping with aluminum foil. At selected time intervals, aliquots from both the controls (non-irradiated) and irradiated samples were removed for high-performance liquid chromatography (HPLC) analysis (vide infra) and bioassay.
(§2) Individual larvae were injected per os on the first day of the fifth instar with 1.0 μg of one of the either irradiated or non-irradiated compounds dissolved in 1.0 μl of 75% aqueous ethanol.
(§3) Relative activity of azadirachtin, 3deacetylazadirachtin,
22,23dihydroazadirachtin, and 2',3',22,23tetrahydroazadirachtin, all of
which had been exposed for 15, 30, 90, 200, and 400 hours to UV radiation
inhibiting the pupal development of fifthinstar Heliothis virescens
(§4) larvae. Relative activity is defined as the percentage of larvae injected

[3] = tested on: fifth-instar Heliothis virescens larvae; experiment: Pupal and adult development of fifth-instar larvae injected orally with non-irradiated compounds; type: in vivo; details: for mortality at 0.001 mg: Heliothis virescens, light or radiation study, po, read-out: % Mortality Prior to Adult Stage
Method: as §2
Successful and unsuccessful pupal and adult development of fifthinstar
Heliothis Virescens larvae injected orally with 1.0 microgram of either
azadirachtin, 3deacetylazadirachtin, 22,23dihydroazadirachtin, or
2',3',22,23tetrahydroazadirachtin.

[4] = tested on: fifth-instar Heliothis virescens larvae; experiment: Relative activity of UV-irradiated compounds in inhibiting adult development; type: in vivo; details: for Relative activity, inhibiting adult development: relative to non-irradiated
Method: as §1, §2, §3
22,23dihydroazadirachtin, 2',3',22,23tetrahydroazadirachtin, all of which
had been exposed for 15, 30, 90, 200, and 400 hours to UV radiation, in
inhibiting the adult development of fifthinstar Heliothis virescens
as §4
relative to the percentage injected with its nonirradiated counterpart

[5] = Stability to UV irradiation by reversed phase HPLC; type: physicochemical; details: for degraded at 90 h / half-life: absolute ethanol
Method: Stability of Azadirachtin derivatives was determined as follows:
as §1
Analytical reversed phase HPLC was performed on a phenyl (5 μm) column run isocratically with acetonitrile-water (3:7) (Yamasaki et al.) Peaks were detected at 214 nm. The irradiated samples were compared with their corresponding non-UV-irradiated controls by measuring the height of the peak eluting at the appropriate Rt for each irradiated compound relative to each one's non-irradiated control. Results are expressed as the percent of the initial sample concentration remaining relative to the control. Each time point was done in at least triplicate fashion.

insect = details: Kubo & Klocke; cited from earlier work
insects [6] = details: Kubo & Klocke and other literature; cited from earlier work
insects [7] = experiment: Antifeedant function; details: in vivo
[8] = 1.0 microgram per os, fifth instar, non-irradiated
[9] = 1.0 microgram per os, non-irradiated

Compound	EC50 (concentration causing 50% growth inhibition) [1]	LC50 (concentration causing 50% mortality) [1]	LC50 [1]	Relative activity, inhibiting pupal development ([2]; 15 h UV)	Relative activity, inhibiting pupal development ([2]; 30 h UV)	Relative activity, inhibiting pupal development ([2]; 90 h UV)	ability to inhibit pupation, in words ([2]; 200 h UV)	Relative activity, inhibiting pupal development ([2]; 200 h UV)	ability to inhibit pupation, in words ([2]; 400 h UV)	Relative activity, inhibiting pupal development ([2]; 400 h UV)	Number Unsuccessful Larvae-Pupae [3, 8]	Number Unsuccessful Pupae-Adult [3, 8]	inhibition of pupation, in words [3, 9]	mortality at 0.001 mg [3]	Relative activity, inhibiting adult development ([4]; 15 h UV)	Relative activity, inhibiting adult development ([4]; 30 h UV)	Relative activity, inhibiting adult development ([4]; 90 h UV)	Relative activity, inhibiting adult development ([4]; 200 h UV)	Relative activity, inhibiting adult development ([4]; 400 h UV)	activity retained, in words ([2]; 90 h UV)	further results
13-O-methylazadirachtin [Compound 5]	5.00 (1.54-16.25) ppm	25.0 (12.2-51.4) ppm	–	–	–	–	–	–	–	–	–	–	–	–	–	–	–	–	–	–	–
13O-acetylazadirachtin [Compound 4]	0.18 (0.08-0.40) ppm	0.95 (0.59-1.54) ppm	–	–	–	–	–	–	–	–	–	–	–	–	–	–	–	–	–	–	–
COC(=O)C1(O)OCC23C(O)CC(OC(C)=O)C4(C(=O)OC)COC(C42)C(O)C(C)(C24OC2(C)C2CC4OC4OCCC42O)C13 (stereo not shown) [Compound 7, 1-detigloyl-22,23dihydroazadirachtin]	–	–	2.4 µg/mL (≈ 3.75 µM)	–	–	–	–	–	–	–	–	–	–	–	–	–	–	–	–	–	–
13,20-O, O-dicarbomethoxy-22,23-dihydroazadirachtin [Compound 6]	29.0 (20.3-41.5) ppm	90.0 (37.8-214.5) ppm	–	–	–	–	–	–	–	–	–	–	–	–	–	–	–	–	–	–	–
CCC(C)C(=O)OC1CC(OC(C)=O)C2(C(=O)OC)COC3C2C12COC(O)(C(=O)OC)C2C(C)(C12OC1(C)C1CC2OC2OCCC21O)C3O (stereo not shown) [Compound 8, 2',3',22,23-tetrahydroazadirachtin]	–	–	0.3 µg/mL (≈ 0.414 µM)	99.4%	103.7%	99.7%	most active in inhibiting pupation	108.0%	its activity declined after 400 h of exposure, it was still more active than the other test compounds	69.1%	6	1	equally effective in inhibiting pupation	100%	100.0%	100.0%	100.0%	100.0%	100.0%	–	loss in activity with degradation, in words ([2]; 400 h UV): some loss in activity; Number Pupae [3, 8]: 10; ability to inhibit larvae from reaching the adult stage, in words ([4]; 400 h UV): fully active after 400 h of irradiation; growth inhibitory and lethal activity, in words ([1]; relative to azadirachtin): retaining full activity; also recorded: fully active
C/C=C(\C)C(=O)OC1CC(O)C2(C(=O)OC)COC3C2C12COC(O)(C(=O)OC)C2C(C)(C12OC1(C)C1CC2OC2OC=CC21O)C3O (stereo not shown) [Compound 2, 3-deacetylazadirachtin]	–	–	0.37 µg/mL (≈ 0.545 µM)	115.2%	135.0%	139.5%	did decline	86.8%	An even greater decline	41.0%	13	4	less effective	94.1%	103.2%	106.3%	106.3%	96.0%	72.3%	retained full activity	activity retained ([2]; 400 h UV): approximately 50%; ability to inhibit pupation, in words ([2]; up to 90 h UV): not appreciably reduced; degradation, in words [5]: none of the three compounds remained in their original state; reaction order of UV degradation, in words [5]: degraded in a first-order reaction; degraded at 90 h ([5]; uv): > 80%; half-life ([5]; uv): 25 h; ability to inhibit larvae from reaching the adult stage, in words ([4]; 200 h UV): remained substantially unchanged until 400 h of irradiation
COC(=O)C1(O)OCC23C(OC(=O)C(C)(O)C(C)O)CC(OC(C)=O)C4(C(=O)OC)COC(C42)C(O)C(C)(C24OC2(C)C2CC4OC4OCCC42O)C13 (stereo not shown) [Compound 9, 2',3'-dihydroxy-2',3'22,23-tetrahydroazadirachtin]	–	–	42 µg/mL (≈ 55.5 µM)	–	–	–	–	–	–	–	–	–	–	–	–	–	–	–	–	–	–
C/C=C(\C)C(=O)O[C@@H]1C[C@H](O)[C@]23CO[C@H](C(=O)OC)[C@H]2[C@](C)([C@]24O[C@@]2(C)[C@H]2C[C@@H]4O[C@@H]4OC=C[C@@]42O)[C@H](O)[C@@H]2OC[C@@]1(C(=O)OC)[C@H]23 [deacetylazadirachtinol]	–	–	–	–	–	–	–	–	–	–	–	–	–	–	–	–	–	–	–	–	fold less active than azadirachtin as insect growth inhibitor (insect): about 2.5 fold; ecdysis inhibitory activity, in words (insects [6]): the same ecdysis inhibitory activity
C/C=C(\C)C(=O)OC1CC(OC(C)=O)C2(C(=O)OC)COC3C2C12COC(O)(C(=O)OC)C2C(C)(C12OC1(C)C1CC2OC2OCCC21O)C3O (stereo not shown) [Compound 3, 22,23-dihydroazadirachtin]	–	–	0.47 µg/mL (≈ 0.65 µM)	113.1%	104.6%	100.0%	did decline	72.7%	An even greater decline	49.1%	13	4	less effective	96.6%	103.5%	100.1%	103.5%	69.0%	74.5%	retained full activity	activity retained ([2]; 400 h UV): approximately 50%; ability to inhibit pupation, in words ([2]; up to 90 h UV): not appreciably reduced; degradation, in words [5]: none of the three compounds remained in their original state; reaction order of UV degradation, in words [5]: degraded in a first-order reaction; degraded at 90 h ([5]; uv): > 80%; half-life ([5]; uv): 25 h; ability to inhibit larvae from reaching the adult stage, in words ([4]; 200 h UV): more so
C/C=C(\C)C(=O)O[C@H]1C[C@@H](OC(C)=O)[C@@]2(C(=O)OC)CO[C@H]3[C@@H](O)[C@@](C)([C@]45O[C@@]4(C)[C@H]4C[C@@H]5O[C@@H]5OC=C[C@@]54O)[C@H]4[C@]1(CO[C@]4(O)C(=O)OC)[C@@H]32 [Compound 1, azadirachtin]	0.07 (0.05-0.10) ppm	–	0.8 µg/mL (≈ 1.11 µM)	98.6%	98.9%	85.7%	did decline	74.2%	An even greater decline	60.0%	5	0	equally effective in inhibiting pupation	98.7%	101.3%	101.3%	97.3%	89.7%	81.1%	retained full activity	ecdysis inhibitory activity, in words (insects [6]): potent ecdysis inhibitory activity; also recorded: the same ecdysis inhibitory activity; activity retained ([2]; 400 h UV): approximately 50%; ability to inhibit pupation, in words ([2]; up to 90 h UV): not appreciably reduced; degradation, in words ([5]; 400 h UV): none of the three compounds remained in their original state; half-life ([5]; UV 200-280 nm, room temperature, read-out: T1/2 of UV degradation (converted)): 25 h; UV stability, in words ([5]; UV exposure up to 400 h): UV-labile; reaction order of UV degradation, in words ([5]; UV irradiation): degraded in a first-order reaction; degraded at 90 h ([5]; 90 h UV, read-out: compound degraded): > 80%; Adults Deformed, % [3, 8]: 0.7%; Adults, % [3, 8]: 1.3%; Number Adults [3, 8]: 2; Number Adults Deformed [3, 8]: 1; Number Pupae [3, 8]: 10; Pupae, % [3, 8]: 6.7%; Unsuccessful Larvae-Pupae, % [3, 8]: 3.4%; Unsuccessful Pupae-Adult, % [3, 8]: 0%; ability to inhibit larvae from reaching the adult stage, in words ([4]; 200 h UV): declined slightly; antifeedant function, in words (insects [7]): function as antifeedants

From patent US5001149A, “Azadirachtin derivative insecticides” (NPI, priority 1987, dated 1991)
